Measured values as given in publication PMC2276102, “Phage Display Based Cloning of Proteins Interacting with the Cytoplasmic Tail of Membrane Immunoglobulins” (Developmental Immunology, 2002).

Tests used:
[1] = system: cHPK1 (87 amino acids of the C-terminal part of HPK1) displayed on phage; assay: Surface plasmon resonance analysis (BIACORE), HIS-tagged Ig-tail peptides on NTA sensor chip, cHPK1 phagemids injected; type: binding, murine; settings: for decrease of binding capacity / relative binding affinity for cHPK1 compared to the wild type IgE tail: after the elution step, IgE measurement set to 100%; for Elution after 100 s, Relative RUs: binding of cHPK1 phage (10^9 cfu in TBS) to immobilised HIS-tagged Ig-tail, value remaining after 100 s of elution; for Injection after 60 s, Relative RUs: binding of cHPK1 phage (10^9 cfu in TBS, injected 60 s) to immobilised HIS-tagged Ig-tail, 400 (±25) RUs peptide coupled, value taken 60 s after injection; for Elution after 100 s, %: relative RUs after 100 s elution, IgE values were set to 100%
Excerpt: Phage Display Based Cloning of Proteins Interacting with the Cytoplasmic Tail of Membrane Immunoglobulins* ROLAND GEISBERGERa , MARTIN PRLICa , GERTRUDE ACHATZ-STRAUSSBERGERa , IRIS OBERNDORFERa , ELKE LUGERb , MARINUS LAMERSc , RETO CRAMERId , ULRICH APPENZELLERd , JURGEN WIENANDSe , MICHAEL BREITENBACHa , FATIMA FERREIRAa and GERNOT ACHATZa, a Department of Genetics and General Biology, Hellbrunnerstrae 34, A-5020 Salzburg, Austria; b DRFZ, Schumannstrasse 21/22, D-10117, Germany; c MPI for Immunobiology, Stubeweg 51, D-79108 Freiburg, Germany; d SIAF, Obere Strasse 22, CH-7270 Davos, Switzerland; e Department of Biochemistry I, Universitaetsstrasse 25, D-33615 Bielefeld, Germany. The reduced quantity and quality of serum immunoglobulins (sIgs) in mutant mice expressing truncated cytoplasmic tails of IgE and IgG1 indicate an active role for the cytoplasmic domains of mIgG1 and mIgE. We used phage display technology to identify candidate proteins able to interact with the cytoplasmic tail of mIgE. […] The interaction of HPK1 with the cytoplasmic domains of membrane immunoglobulins indicate an active role of the tails as part of an isotype specific signal transduction, independent from the Iga/Igb heterodimers, and may represent a missing link to upstream regulatory elements of HPK1 activation. Keywords: Antigen receptor; Cytoplasmic tail; HPK1; Phage display; Surface plasmon resonance INTRODUCTION The B cell antigen receptor (Vitetta et al., 1980; Reth, 1992) plays a central role in almost all processes along the developmental pathway of B cells, i.e. the generation, maturation, survival and activation of B cells. B cell antigen receptors (BCR) exist as a complex of membrane immunoglobulins (mIgs) and at least two other transmem- brane polypeptides, called Ig-a and Ig-b, which connect the antigen receptor to the tyrosine phosphorylation pathways in the cell. In this complex, mIgs serve as isotype specific antigen receptors on the surface of B lymphocytes. All isotypes of mIgs can form a complex with Ig-a and Ig-b (Venkitaraman et al., 1991) indicating an involvement of all isotypes in the signal transduction pathway. The earliest detectable biochemical event that follows BCR-aggregation is increased activity of protein tyrosine kinases (PTKs) of the Syk- and Src-family, which phosphorylate distinct tyrosine residues within conserved sequences present on the cytoplasmic portions of Ig-a and Ig-b (Reth, 1992). Phosphorylation of Ig-a and Ig-b occurs on the tyrosine residues of immuno receptor tyrosine-based activation motif (ITAM) and on the non-ITAM tyrosine 204 of Ig-a (Engels et al., 2001). Once phosphorylated, ITAMs provide binding sites for SRC homology 2 (SH2) domains of the Src and Syk PTKs and the adaptor protein SLP-65 (Engels et al., 2001), thus initiating several signaling pathways, the most important of which are the PLC-g, the Ras and the PI3-kinase pathways (Reth and Wienands, 1997; Kurosaki, 1999). Various external stimuli such as cytokine binding, interaction with other cells as well as stress factors including osmotic shock, heat or ionizing irradiation can influence the signaling cascade initiated by BCR engagement and they can contribute to differential alteration of the pattern of gene expression. Obviously, between Ig subclasses, there should be no differences in the transduction of signals regulating the central features of the immune system (Nussenzweig, 1997) such as the control of allelic exclusion, early cellular transitions and in the function of the membrane- bound immunoglobulin as a receptor for antigen capture ISSN 1044-6672 print q 2002 Taylor & Francis Ltd DOI: 10.1080/1044667031000137584 *Presented at the Proceedings of the 4th Germinal Center Conference, Groningen, The Netherlands, June 2002. Corresponding author. Address: Institut fur Genetik, Hellbrunnerstrae 34, A-5020 Salzburg, Austria. Tel.: 43-662-8044-5764. Fax: 43-662- 8044-144. […]

[2] = system: cHPK1 (87 amino acids of the C-terminal part of HPK1) displayed on phage; assay: Surface plasmon resonance analysis (BIACORE), IgE tail peptide covalently coupled to CM5 sensor chip, cHPK1 phagemids injected; type: binding, murine; settings: CM5 sensor chip with covalently coupled IgE tail peptide (1683 RUs), random peptide as reference channel; 1 x 10^9 cHPK1 displaying phages injected over 200 s, washing with TBS
Excerpt: Phage Display Based Cloning of Proteins Interacting with the Cytoplasmic Tail of Membrane Immunoglobulins* ROLAND GEISBERGERa , MARTIN PRLICa , GERTRUDE ACHATZ-STRAUSSBERGERa , IRIS OBERNDORFERa , ELKE LUGERb , MARINUS LAMERSc , RETO CRAMERId , ULRICH APPENZELLERd , JURGEN WIENANDSe , MICHAEL BREITENBACHa , FATIMA FERREIRAa and GERNOT ACHATZa, a Department of Genetics and General Biology, Hellbrunnerstrae 34, A-5020 Salzburg, Austria; b DRFZ, Schumannstrasse 21/22, D-10117, Germany; c MPI for Immunobiology, Stubeweg 51, D-79108 Freiburg, Germany; d SIAF, Obere Strasse 22, CH-7270 Davos, Switzerland; e Department of Biochemistry I, Universitaetsstrasse 25, D-33615 Bielefeld, Germany. The reduced quantity and quality of serum immunoglobulins (sIgs) in mutant mice expressing truncated cytoplasmic tails of IgE and IgG1 indicate an active role for the cytoplasmic domains of mIgG1 and mIgE. We used phage display technology to identify candidate proteins able to interact with the cytoplasmic tail of mIgE. […] The interaction of HPK1 with the cytoplasmic domains of membrane immunoglobulins indicate an active role of the tails as part of an isotype specific signal transduction, independent from the Iga/Igb heterodimers, and may represent a missing link to upstream regulatory elements of HPK1 activation. […]

[3] = biological target: HIS-tagged cytoplasmic tail of membrane IgE (28 amino acids) (mouse); assay: SPR; BIACORE CM5 chip; IgE-tail peptide covalently coupled to Fc1 (1683 RUs), random peptide (1704 RUs) on Fc2 as reference; 1 x 10^9 cfu phagemids in TBS injected, then washing with TBS; relative response
[4] = biological target: HIS-tag deficient random peptide; assay: SPR; BIACORE NTA sensor chip; HIS-tagged Ig-tail peptides (150 nM in 0.01 M Hepes, 0.15 M NaCl, 50 mM EDTA, 0.005% surfactant P20) captured via the HIS-tag, 400 (+/-25) RUs each; 10^9 cfu cHPK1 phage in TBS injected 1 min, 100 s elution; relative RUs, IgE set to 100%
[5] = biological target: HIS-tagged modified IgE cytoplasmic tail lacking the four amino acids T-F-Q-D (IgEDTFQD) (mouse); assay: as above
[6] = biological target: HIS-tagged cytoplasmic tail of IgG2a; assay: as above
[7] = biological target: HIS-tagged cytoplasmic tail of IgG2b; assay: as above
[8] = biological target: HIS-tagged cytoplasmic tail of IgG1 (mouse); assay: as above
[9] = biological target: HIS-tagged cytoplasmic tail of membrane IgE (28 amino acids) (mouse); assay: as above
[10] = biological target: HIS-tagged cytoplasmic tail of IgG3; assay: as above
[11] = biological target: HIS-tagged cytoplasmic tail of IgM (KVK); assay: as above

“(6 H) KVKWIFSSVVELKQKISPDYRNMI- GQGA [IgG2b, HIS-tagged synthetic cytoplasmic tail of IgG2b]” was tested, and the “decrease of binding capacity / relative binding affinity for cHPK1 compared to the wild type IgE tail” value [1] was “about 60%”, the “Elution after 100 s, Relative RUs” value [1] was 72 RUs and the “Injection after 60 s, Relative RUs” value [1] was 276 RUs. The “Elution after 100 s, %” value [1] was 41%.
For “(6 H) KVKWIFSSVVELKQTISPDYRNMI- GQGA [IgG2a, HIS-tagged synthetic cytoplasmic tail of IgG2a]”, the “decrease of binding capacity / relative binding affinity for cHPK1 compared to the wild type IgE tail” value [1] was “about 60%”, the “Elution after 100 s, Relative RUs” value [1] was 68 RUs and the “Injection after 60 s, Relative RUs” value [1] was 284 RUs. The “Elution after 100 s, %” value [1] was 38%.
For “(6 H) KVKWIFSSVVELKQTLVPEYKNMI- GQAP [IgG1, HIS-tagged synthetic cytoplasmic tail of IgG1]”, the “Elution after 100 s, Relative RUs” value [1] was 128 RUs, the “Injection after 60 s, Relative RUs” value [1] was 819 RUs and the “Elution after 100 s, %” value [1] was 72%.
“(6 H) KVKWIFSSVVQVKQTAIPDYRNMI- GQGA [IgG3, HIS-tagged synthetic cytoplasmic tail of IgG3]” was tested, and the “Elution after 100 s, Relative RUs” value [1] was 120 RUs, the “Injection after 60 s, Relative RUs” value [1] was 744 RUs and the “Elution after 100 s, %” value [1] was 67%.
With “(6 H) KVKWVFSTPMQDTPQYA- NILQTRA [IgEDTFQD, HIS-tagged IgE cytoplasmic tail peptide lacking the TFQD amino acids]” the “decrease of binding capacity / relative binding affinity for cHPK1 compared to the wild type IgE tail” value [1] was 47%, the “Elution after 100 s, Relative RUs” value [1] was 94 RUs and the “Injection after 60 s, Relative RUs” value [1] was 563 RUs. The “Elution after 100 s, %” value [1] was 53%.
“HHHHHHKVKWVFSTPMQDTPQTFQDYA- NILQTRA [IgE, HIS-tagged synthetic peptide of the 28 amino acid long cytoplasmic tail of mIgE]” was tested, and the “relative increase in affinity after the elution step” value [2] was 500 RUs, the “Elution after 100 s, Relative RUs” value [1] was 177 RUs and the “Injection after 60 s, Relative RUs” value [1] was 691 RUs.
With “SPHRCRIHPRPSKTMPTSSRPGH- RCDASTH [Random peptide, HIS-tag deficient random peptide used as control, reference compound]” the “Elution after 100 s, Relative RUs” value [1] was about 0 RUs, the “Injection after 60 s, Relative RUs” value [1] was 310 RUs and the “Elution after 100 s, %” value [1] was about 0%.
For “cHPK1, 87 amino acids of the C-terminal part of murine hematopoietic progenitor kinase 1 (HPK1), displayed on phage (domain or fragment)”, the relative RUs after the elution step [3] was 500 RUs, the relative RUs 60 s after injection [4] was 310 RU and the % of the IgE tail's RUs after elution [5] was 53%. For the same substance, the relative RUs 60 s after injection [5] was 563 RU, the relative RUs 100 s after elution [5] was 94 RU and the % of the IgE tail's RUs after elution [6] was 38%. The relative RUs 60 s after injection [6] was 284 RU, the relative RUs 100 s after elution [6] was 68 RU and the % of the IgE tail's RUs after elution [7] was 41%. For the same substance, the relative RUs 60 s after injection [7] was 276 RU, the relative RUs 100 s after elution [7] was 72 RU and the % of the IgE tail's RUs after elution [8] was 72%. For the same substance, the relative RUs 60 s after injection [8] was 819 RU, the relative RUs 100 s after elution [8] was 128 RU and the relative RUs 60 s after injection [9] was 691 RU. The relative RUs 100 s after elution [9] was 177 RU, the % of the IgE tail's RUs after elution [10] was 67% and the relative RUs 60 s after injection [10] was 744 RU. The relative RUs 100 s after elution [10] was 120 RU and the relative RUs 60 s after injection [11] was 617 RU.
